For one assay, the system named is pS6 MDA-MB-468. As to the kind of experiment: Cellular Activity Assay (phospho-S6 in MDA-MB-468 cells). Format: cell-based. The settings on record: Homo sapiens, 2 hr compound incubation, percent pS6-positive cells. As for the experimental part: MDA-MB-468 cells were grown in DMEM containing glutamine supplemented with 10% Fetal Bovine Serum (FBS) and 1× antibiotics. Cells were maintained by splitting 1:3 twice a week.
For the assay, cells were plated the evening before at a density of 4000 cells per well in black polyD lysine coated 384 well plates. Cells were incubated overnight (16 to 20 hours) in growth media. Compounds at an appropriate concentration were added to the wells and incubated for 2 hr. Controls included: i) no primary, ii) rabbit isotype, iii) propidium iodide (red) only and iv) anti-phospho-S6 antibody alone (green only). Cells were then fixed in 4% paraformaldehyde for 15-20 minutes at room temperature, then washed 3×80 ul with PBS.
50 ul 10% normal goat serum (NGS) with 0.2% triton X 100 in PBS were added and incubated for 30 to 60 minutes at room temperature. Anti-phospho-S6 antibody was diluted 1:800 2% with NGS in 0.2% TritonX-100 and 30 ul added to appropriate wells. The wells were incubated overnight at 4 degrees Celsius.
Then the wells were washed with 3×80 uL PBS. The secondary green fluorescence labeled antibody (Alexa Fluor® 488 F(ab′)2 fragment goat Anti-rabbit IgG (H+L)), was diluted 1:1500 in 2% NGS with 0.2% TritonX-100, and 30 ul were added to the appropriate wells which were then incubated in the dark at room temperature for 60 minutes. Then they were washed with 4×80 ul PBS. Propidium iodide (1.5 mM stock) was diluted 1:1000 in PBS, and 50 ul were added to the appropriate wells and incubated for 30 minutes at room temperature in the dark. Propidium iodide was not washed out. Plates were read on the Acumen Explorer.
Red and green cell populations were determined using controls. The number of green cells (pS6) and total number of cells (red) were then counted and the percentage of green cells was calculated. Percent positive cell data was plotted on a log scale against concentration of compounds and IC50 values were calculated from dose response curves.

For another assay, the target named is T1, P70S6K (T412E mutant) (Homo sapiens, UniProt P23443, T412E).
T1 construct: purchased Millipore
As to the kind of experiment: p70S6K Enzyme Assay. Format: biochemical. As to conditions: 24 μM ATP, 90 min at 25° C., Caliper mobility shift. As for the experimental part: p70S6K inhibitor compounds were diluted and plated in 96 well plates. A reaction mixture including the following components were then added to the compound plate to initiate the enzyme reaction; P70S6K (3 nM, T412E mutant, Millipore) was mixed with 24 μM ATP in an assay buffer containing 100 mM Hepes (pH 7.5), 5 mM MgCl2, 1 mM DTT, 0.015% Brij and 1 μM of the substrate peptide FITC-AHA-AKRRRLSSLRA-OH (derived from the S6 ribosomal protein sequence, FITC=fluorescein isothiocyanate, AHA=6-aminohexanoic acid). The reaction was incubated for 90 min at 25° C., before the addition of 10 mM EDTA to stop the reaction. The proportion of substrate and product (phosphorylated) peptide was analysed on a Caliper Life Sciences Lab Chip 3000, using a pressure of −1.4 psi, and upstream and downstream voltages of −3000 and −700 respectively. Product peaks were resolved before substrate peaks on the resulting chromatograms.
To assess the inhibitory potential of the compounds, IC50-values were determined, as shown in Chemical Synthesis section above.

Another assay concerns the target T2, Akt1 (Homo sapiens, UniProt P31749).
T2 construct: 0.1 ng/ul His-AKT (Full Length), (Invitrogen, Part #P2999, Lot #641228C); His; purchased Invitrogen P2999
In words: AKT/PKB Kinase Assay. The settings on record: His-AKT (Full Length), 160 uM ATP, 90 min at 25 C. The assay is classed as biochemical. As for the experimental part:
In order to measure AKT inhibition in the Caliper Life Sciences LC3000, a TTP Mosquito liquid handling instrument was used to place 125 nl of the appropriate concentration of inhibitor in 100% DMSO (for a dose response curve calculation) into each well of a 384-well plate. To this reaction components were added to a final volume of 12.5 ul: • 0.1 ng/ul His-AKT (Full Length), (Invitrogen, Part #P2999, Lot #641228C) • 160 uM ATP (Fluke, 02055) • 1 mM DTT (Sigma, D0632) • 1 mM MgCl2 (Sigma, M1028) • 1 uM substrate peptide (sequence FITC-AHA-GRPRTSSFAEG-NH2), synthesized by Tufts Peptide Synthesis service. • 100 mM HEPES pH 7.5 (Calbiochem, 391338) • 0.015% Brij-35 (Sigma, B4184)
(§1) The reaction was incubated for 90 min at 25 C, and then stopped by the addition of 70 ul of Stop buffer (100 mM HEPES pH 7.5, 0.015% Brij-35, 10 mM EDTA (Sigma, E7889)).
The plate was read on a Caliper LC 3000 in an Off-Chip mobility shift assay format, using the following parameters for a 12-sipper chip: screening pressure −2.3 psi, upstream voltage −500, and downstream voltage −3000.
These conditions cause unphosphorylated substrate and phosphorylated product peptide to resolve as separate peaks allowing direct measurement of percentage of conversion of substrate to product. The percent conversion was plotted against concentration of inhibitor to produce a sigmoidal dose response curve, from which an IC50 was calculated.

For the next assay, the target named is T3, Aurora B (Homo sapiens, UniProt Q96GD4).
T3 construct: GST-Aurora B (1-344 amino acids); GST (N); purchased Carna Biosciences 05-102
In words: Aurora B Kinase Assay. The settings on record: GST-Aurora B (1-344), 10 uM ATP, 90 min at 25 C. Format: biochemical. As for the experimental part:
To measure inhibitor activity of Aurora B inhibitors in the Caliper Life Sciences LC3000, a TTP Mosquito liquid handling instrument was used to place 0.25 ul of the appropriate concentration of inhibitor in 100% DMSO (for a dose response curve calculation) into each well of a 384-well plate. To this reaction components was added to a final volume of 25 ul: • 0.1 ng/ul GST-Aurora B (1-344 amino acids), (Carna Biosciences 05-102. N-terminal GST fusion with His tagged INCEP, accession number Q96GD4). • 10 uM ATP (Fluka, 02055) • 1 mM DTT (Sigma, D0632) • 1 mM MgCl2 (Sigma, M1028) • 1 uM substrate peptide (sequence FITC-LRRASLG-(CONH2), synthesized by Tufts Peptide Synthesis service. • 100 mM HEPES pH 7.5 (Calbiochem, 391338) • 0.015% Brij-35 (Sigma, B4184)
as §1
The plate was read on a Caliper LC 3000 in an Off-Chip mobility shift assay format, using the following parameters for a 12-sipper chip: screening pressure −1.8 psi, upstream voltage −2700, downstream voltage −1000. These conditions caused unphosphorylated substrate and phosphorylated product peptide to resolve as separate peaks allowing direct measurement of percentage of conversion of substrate to product. The percent conversion was plotted against concentration of inhibitor to produce a sigmoidal dose response curve, from which an IC50 was calculated using XLFit for Microsoft Excel.

Each structure is given as a SMILES string.

T3 sequence (Q96GD4 whole entry, the tested form may be a part): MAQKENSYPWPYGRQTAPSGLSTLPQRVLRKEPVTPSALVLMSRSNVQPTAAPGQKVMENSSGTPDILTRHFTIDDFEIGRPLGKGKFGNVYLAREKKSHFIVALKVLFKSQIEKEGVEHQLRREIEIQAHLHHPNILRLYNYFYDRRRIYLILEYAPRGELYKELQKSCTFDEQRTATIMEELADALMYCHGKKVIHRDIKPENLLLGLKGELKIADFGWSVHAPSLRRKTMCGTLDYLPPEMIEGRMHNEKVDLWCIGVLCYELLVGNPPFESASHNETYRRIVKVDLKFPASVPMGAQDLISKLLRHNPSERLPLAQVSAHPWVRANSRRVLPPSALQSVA
T3 sequence (Q9NQS7 803-918 partner limits assumed): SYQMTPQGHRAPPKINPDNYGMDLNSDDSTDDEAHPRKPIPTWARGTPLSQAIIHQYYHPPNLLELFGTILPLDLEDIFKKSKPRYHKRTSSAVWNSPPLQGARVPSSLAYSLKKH
T2 sequence (P31749 whole entry): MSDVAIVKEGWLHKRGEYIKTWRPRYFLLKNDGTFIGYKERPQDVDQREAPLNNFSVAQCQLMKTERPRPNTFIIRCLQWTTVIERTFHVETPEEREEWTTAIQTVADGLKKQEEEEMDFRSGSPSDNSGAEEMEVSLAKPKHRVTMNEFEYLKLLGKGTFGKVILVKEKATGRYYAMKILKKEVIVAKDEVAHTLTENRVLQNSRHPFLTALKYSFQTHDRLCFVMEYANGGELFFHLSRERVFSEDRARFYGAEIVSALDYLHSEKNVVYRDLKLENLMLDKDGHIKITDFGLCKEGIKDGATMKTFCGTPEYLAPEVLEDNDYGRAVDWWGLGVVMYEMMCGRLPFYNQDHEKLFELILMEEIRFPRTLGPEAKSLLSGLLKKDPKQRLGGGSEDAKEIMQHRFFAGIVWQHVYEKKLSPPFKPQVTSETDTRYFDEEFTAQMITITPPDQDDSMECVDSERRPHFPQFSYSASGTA
T1 sequence (P23443 1-421 T412E limits assumed): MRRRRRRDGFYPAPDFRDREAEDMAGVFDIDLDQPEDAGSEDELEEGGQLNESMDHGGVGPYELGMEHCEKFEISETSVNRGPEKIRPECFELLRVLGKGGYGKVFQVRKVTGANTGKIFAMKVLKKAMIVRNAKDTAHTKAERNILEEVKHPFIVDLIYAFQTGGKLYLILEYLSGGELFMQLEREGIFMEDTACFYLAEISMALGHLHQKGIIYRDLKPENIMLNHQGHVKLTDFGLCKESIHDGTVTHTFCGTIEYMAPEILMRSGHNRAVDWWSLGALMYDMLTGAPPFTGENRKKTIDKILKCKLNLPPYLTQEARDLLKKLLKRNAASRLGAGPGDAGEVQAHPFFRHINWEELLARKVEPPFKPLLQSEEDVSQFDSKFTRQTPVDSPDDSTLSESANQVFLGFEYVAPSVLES

Take `NC(=O)c1cccc2c(N[C@H](CN3CCC3)c3ccc(Cl)c(F)c3)ncnc12` [Example 29, 4-[(S)-2-Azetidin-1-yl-1-(4-chloro-3-fluoro-phenyl)-ethylamino]-quinazoline-8-carboxylic acid amide]: the results for the IC50 in the assay with pS6 MDA-MB-468, at P70S6K (T412E mutant) and at Akt1 were 19 nM, 1.6 nM and 7.7 nM, respectively.

`COc1cc([C@@H](CN2CCC2)Nc2ncnc3c(C(N)=O)cccc23)ccc1F` [Example 43, 4-[(S)-2-Azetidin-1-yl-1-(4-fluoro-3-methoxy-phenyl)-ethylamino]-quinazoline-8-carboxylic acid amide]: the IC50 in the assay on pS6 MDA-MB-468 stood at 484 nM; against Aurora B, 69 nM; at P70S6K (T412E mutant) it was 4 nM; against Akt1, 21 nM.

As to `CC1CCN1C[C@@H](Nc1ncnc2c(C(N)=O)cccc12)c1ccc(F)c(C(F)(F)F)c1` (stereo partly drawn) [Example 48, 4-[(S)-1-(4-Fluoro-3-trifluoromethyl-phenyl)-2-(2-methyl-azetidin-1-yl)-ethylamino]-quinazoline-8-carboxylic acid amide], the IC50 stood at 391 nM in the assay with pS6 MDA-MB-468, 120 nM against Aurora B, 3 nM on P70S6K (T412E mutant) and 11 nM on Akt1.

As for `NC(=O)c1cccc2c(N[C@H](CN3CCC3)c3ccc(Cl)cc3)ncnc12` [Example 10, 4-[(S)-2-Azetidin-1-yl-1-(4-chlorophenyl)-ethylamino]-quinazoline-8-carboxylic acid amide], the concentration for half-maximal inhibition (IC50) stood at 36 nM with pS6 MDA-MB-468, 43 nM at Aurora B, 1 nM at P70S6K (T412E mutant) and 21 nM against Akt1.

As to `NC(=O)c1cccc2c(N[C@H](CN3CCC3)c3c(F)cccc3F)ncnc12` [Example 16, 4-[(S)-2-Azetidin-1-yl-1-(2,6-difluorophenyl)-ethylamino]-quinazoline-8-carboxylic acid amide], the IC50 in the assay on pS6 MDA-MB-468 was found to be 183 nM; against Aurora B it was 170 nM; at P70S6K (T412E mutant), 5.4 nM; against Akt1, 91 nM.

Turning to `NC(=O)c1cccc2c(N[C@H](CN3CC(F)C3)c3cccc(Cl)c3)ncnc12` [Example 22, 4-[(S)-2-(3-Fluoro-azetidin-1-yl)-1-(3-chlorophenyl)-ethylamino]-quinazoline-8-carboxylic acid amide], the IC50 amounted to 324 nM in the assay on pS6 MDA-MB-468, 2.4 nM on P70S6K (T412E mutant) and 72 nM against Akt1.

For `NC(=O)c1cccc2c(N[C@H](CN3CCC3)c3ccc(C(F)(F)F)cc3)ncnc12` [Example 9, 4-[(S)-2-Azetidin-1-yl-1-(4-trifluoromethylphenyl)-ethylamino]-quinazoline-8-carboxylic acid amide], the IC50 with pS6 MDA-MB-468 is 10 nM; against Aurora B it was 260 nM; at P70S6K (T412E mutant) it was 0.8 nM; on Akt1, 17 nM.

In the case of `NC(=O)c1cccc2c(N[C@H](CN3CCC3)c3cccc(Br)c3)ncnc12` [Example 13, 4-[(S)-2-Azetidin-1-yl-1-(3-bromophenyl)-ethylamino]-quinazoline-8-carboxylic acid amide], the IC50 in the assay on pS6 MDA-MB-468 came to 25 nM; at Aurora B, 17 nM; on P70S6K (T412E mutant) it was 0.3 nM; on Akt1 it was 5 nM.

`NC(=O)c1cccc2c(N[C@H](CN3CCC3)c3ccc(F)c(F)c3F)ncnc12` [Example 19, 4-[(S)-2-Azetidin-1-yl-1-(2,3,4-trifluorophenyl)-ethylamino]-quinazoline-8-carboxylic acid amide]: the IC50 was found to be 62 nM in the assay on pS6 MDA-MB-468, 360 nM against Aurora B, 2.1 nM at P70S6K (T412E mutant) and 23 nM at Akt1.

As to `NC(=O)c1cccc2c(N[C@H](CN3CCC3)c3cc(F)c(F)c(F)c3)ncnc12` [Example 37, 4-[(S)-2-Azetidin-1-yl-1-(3,4,5-trifluorophenyl)-ethylamino]-quinazoline-8-carboxylic acid amide], the IC50 in the assay with pS6 MDA-MB-468 was found to be 130 nM; against Aurora B, 200 nM; on P70S6K (T412E mutant), 2.8 nM; on Akt1, 25 nM.

For `NC(=O)c1cccc2c(N[C@H](CN3CCC3)c3ccc(F)c(Cl)c3)ncnc12` [Example 7, 4-[(S)-2-Azetidin-1-yl-1-(3-chloro-4-fluorophenyl)-ethylamino]-quinazoline-8-carboxylic acid amide], the IC50 turned out to be 1.3 nM in the assay with pS6 MDA-MB-468, 58 nM at Aurora B, 1.3 nM at P70S6K (T412E mutant) and 12 nM against Akt1.

On to `NC(=O)c1cc(F)cc2c(N[C@H](CN3CCC3)c3ccc(F)c(C(F)(F)F)c3)ncnc12` [Example 45, 4-[(S)-2-Azetidin-1-yl-1-(4-fluoro-3-trifluoromethyl-phenyl)-ethylamino]-6-fluoro-quinazoline-8-carboxylic acid amide], for which the IC50 in the assay with pS6 MDA-MB-468 amounted to 33 nM; against Aurora B, 290 nM; at P70S6K (T412E mutant) it was 1.5 nM; against Akt1, 5.9 nM.

`N#Cc1cccc([C@@H](CN2CCC2)Nc2ncnc3c(C(N)=O)cccc23)c1` [Example 11, 4-[(S)-2-Azetidin-1-yl-1-(3-cyanophenyl)-ethylamino]-quinazoline-8-carboxylic acid amide]: the IC50 was found to be 382 nM with pS6 MDA-MB-468, 690 nM against Aurora B, 3.3 nM at P70S6K (T412E mutant) and 270 nM against Akt1.

As to `COc1cc(C(N)=O)c2ncnc(N[C@H](CN3CCC3)c3ccc(F)c(C(F)(F)F)c3)c2c1` [Example 47, 4-[(S)-2-Azetidin-1-yl-1-(4-fluoro-3-trifluoromethyl-phenyl)-ethylamino]-6-methoxy-quinazoline-8-carboxylic acid amide], the IC50 in the assay on pS6 MDA-MB-468 was 27 nM; against Aurora B, 200 nM; on P70S6K (T412E mutant), 2.2 nM; against Akt1 it was 1.5 nM.
